Measurements: patent publication US20040063694A1, “Compound useful for the treatment of CNS disorders” (priority 2002, published 2004)

How the values were obtained:
[1] = previous dog study on a smaller group of animals, cholesterol; conditions: for rise in cholesterol: male or female beagle dogs, 4 mgs/kg/day
[2] = twenty-six week dog study, total cholesterol; conditions: female beagle dogs
Experimental: The dogs are studied over a course of 8 mgs/kg/day per drug for a twenty-six week period and assessed at varying time points for LDL, HDL and total cholesterol as well as having their estrous cycle monitored and measured. […] The preferred normal range in human patients of cholesterol level (total) is described in the Merck Manual as 120-220 mg/Dl.

[3] = twenty-six week dog study, blood glucose levels; conditions: female beagle dogs
Experimental: In addition to total cholesterol values other parameters were measured including blood glucose levels at pretest, week 13 and week 26 of the study.

[4] = solubility in aqueous systems; type: physicochemical
Text: It is known that rate of dissolution of drug particles can be increased by increasing the surface area of the solid, i.e., decreasing the particle size. Consequently, methods of making finely divided drugs have been studied and efforts have been made to control the size and size range of drug particles in pharmaceutical compositions. For example, dry milling techniques have been used to reduce particle size and thereby influence drug absorption. However, in conventional dry milling, as discussed by Lachman et al., The Theory and Practice of Industrial Pharmacy, Chapter 2, “Milling”, p. 45 (1986), the limit of fineness is reached in the region of about 100 µm (=100,000 nm), where the milled material begins to cake onto the surfaces of the milling chamber. Lachman et al. note that wet grinding is beneficial in further reducing particle size, but that flocculation restricts the lower particle size limit to approximately 10 µm (=10,000 nm). Commercial airjet milling techniques have provided particles ranging in average particle size from as low as about 1 µm to 50 µm (=1,000 nm to 50,000 nm). It is […], however, that the 2-ethyl homolog of this invention is advantageously milled according to the above processes to make the compound having an average particle size of between about 1-200 micrometers. The preferred average particle size is less than 200 micrometers.

[5] = beagle dogs; as stated in the '382 patent (alleged); cited from earlier work
[6] = 16 mg/kg, Chakabarti et al. J. Med. Chem. 1980; cited from earlier work
[7] = 10 mg/kg, Chakabarti et al. J. Med. Chem. 1980; cited from earlier work
5HT-2 receptors = experiment: activity at 5HT-2 receptors
Text: (§1) The compound of the invention in all its forms is useful in the treatment of various central nervous system (CNS) disorders or conditions. The compound has been tested using standard behavioral models predictive of antipsychotic activity. These tests include the tests conducted in published papers mentioned above including the rat conditioned avoidance test, the rat catalepsy test and other tests including binding assays to central nervous system receptors including D-1 and D-2 dopamine receptors.

5HT-1 receptors = experiment: activity at 5HT-1 receptors
Text: as §1

| Compound | rise in cholesterol [1] | total average cholesterol values ([2]; 8 mgs/kg/day, twenty six weeks, effect of normal estrous cycle variations discounted) | average total cholesterol value, spike at a single point early on in the study ([2]; oral 8 mgs/kg/day) | mean total cholesterol values after the full duration of the study ([2]; oral 8 mgs/kg/day, twenty-six weeks, n=15 per arm) | blood glucose level, week 13 ([3]; oral 8 mgs/kg/day, week 13) | blood glucose level, week 26 ([3]; oral 8 mgs/kg/day, week 26) | blood glucose level, pretest ([3]; pretest (before dosing)) | solubility in aqueous systems relative to olanzapine [4] | cholesterol raising effect [5] | rat catalepsy test [6] | rat conditioned avoidance test data [7] | rise in cholesterol relative to placebo ([1]; male beagle dogs, 8 mgs/kg/day) | activity at the 5HT-2 receptors (5HT-2 receptors) | activity at the 5HT-1 receptors (5HT-1 receptors) |
| --- | --- | --- | --- | --- | --- | --- | --- | --- | --- | --- | --- | --- | --- | --- |
| Cc1cc2c(s1)Nc1ccccc1N=C2N1CCN(C)CC1 [olanzapine, 2-methyl-10-(4-methyl-1-piperazinyl)-4H-thieno[2,3-b][1,5]benzodiazepine, reference compound] | no rise in cholesterol | – | – | – | – | – | – | – | – | – | – | – | – | – |
| CCc1cc2c(s1)Nc1ccccc1N=C2N1CCN(C)CC1 [Example 222, 2-ethyl-10-(4-methyl-1-piperazinyl)-4H-thieno[2,3-b][1,5]benzodiazepine] | no rise in cholesterol | ≤ 240 mg/dL | 237.2 mgs/dL | 186.8 mgs/dL | 87.9 mg/dL | 77.6 mg/dL | 82.5 mg/dL | slightly less soluble than olanzapine | some cholesterol raising effect | 1 | 2 (31-50% block) | no rise in cholesterol | shows activity | shows activity |
